The source of these data is patent publication US6602899B1, “β-D-5 thioxylose derivatives, preparation method and therapeutic use” (Fournier Industrie & Sante, priority 1999, dated 2003).

For one data set, the system named is venous thrombosis. The experiment in a line: venous thrombosis test (venous stasis under hypercoagulation, WESSLER technique, activated factor X). Format: in vivo, Wistar male rats. As to conditions: rat; for inhibition in vivo at 5 mg/kg: iv, i.v. in PEG 400, 5 mg/kg, thrombosis induced 2 h after administration, read-out: Activity i.v. T = 2 h (percentage inhibition relative to thrombus weight with vehicle); for Activity p.o. T = 4 h (percentage inhibition of thrombus weight): thrombosis induced 4 h after administration; for Activity p.o. T = 8 h (percentage inhibition of thrombus weight): thrombosis induced 8 h after administration. As for the experimental part:
The test products are administered either orally (tubage) dissolved or suspended in PEG 400, or by intravenous injection dissolved in PEG 400. The concentration of the compounds is calculated so that the amount of solution absorbed is 2 ml/kg by oral administration and 1 ml/kg by intravenous injection. The compounds are generally administered intravenously at a dose of 5 mg/kg. If the test is performed after oral administration, the amount administered is calculated so as to correspond to about 2.10^−5 mol/kg. Thrombosis is induced at a time T (2 h, 4 h or 8 hours) after the administration of the product, and the thrombus formed is removed and weighed. To induce this thrombosis, a venous stasis is created under hypercoagulation according to the technique described by WESSLER (J. Applied Physiol. 1959, pp. 943-946), the hypercoagulating agent used being a solution of activated factor X (Xa) having a concentration of 7.5 nKat/kg, supplied by Biogenic. The results obtained, expressed as the percentage inhibition calculated relative to the weight of a thrombus obtained in the absence of active principle in the vehicle, are collated in Table I below. The activity of the test compounds was checked at different doses after they had been administered either orally (p.o.) or intravenously (i.v.). The thrombosis was induced 4 hours or 8 hours after oral administration of the compound and 2 hours after intravenous administration.

A short description of data set [1]: solubility in injectable solvents. Format: physicochemical. As to conditions: especially water and PEG 400.
In the next data set the test system is venous thrombus. The following applies: administered orally, doses of 6 mg/kg and above; cited from earlier work.

`C=CCC(=O)O[C@@H]1[C@@H](OC(=O)CC=C)[C@H](OC(=O)CC=C)CS[C@H]1Oc1ccc2c(C)cc(=O)oc2c1` [Ex. 7, 4-Methyl-2-oxo-2H-1-benzopyran-7-yl 2,3,4-tri-O-(2-propenylcarbonyl)-5-thio-β-D-xylopyranoside]: in the data set with venous thrombosis, the inhibition in vivo at 5 mg/kg was 66%. The same measure, in the same setting: the same measure for `CCCCOC(=O)O[C@@H]1[C@@H](OC(=O)OCCCC)[C@H](OC(=O)OCCCC)CS[C@H]1Oc1ccc2c(C)cc(=O)oc2c1` [Ex. 4, 4-Methyl-2-oxo-2H-1-benzopyran-7-yl 2,3,4-tri-O-butoxycarbonyl-5-thio-β-D-xylopyranoside]: 60%; for `CCCOC(=O)O[C@@H]1[C@@H](OC(=O)OCCC)[C@H](OC(=O)OCCC)CS[C@H]1Oc1ccc2c(C)cc(=O)oc2c1` [Ex. 3, 4-Methyl-2-oxo-2H-1-benzopyran-7-yl 2,3,4-tri-O-propoxycarbonyl-5-thio-β-D-xylopyranoside]: 71%; for `CCOC(=O)O[C@@H]1[C@@H](OC(=O)OCC)[C@H](OC(=O)OCC)CS[C@H]1Oc1ccc2c(C)cc(=O)oc2c1` [Ex. 2, 4-Methyl-2-oxo-2H-1-benzopyran-7-yl 2,3,4-tri-O-ethoxycarbonyl-5-thio-β-D-xylopyranoside]: 73%. As for `COCCOC(=O)O[C@@H]1[C@@H](OC(=O)OCCOC)[C@H](OC(=O)OCCOC)CS[C@H]1Oc1ccc2c(C)cc(=O)oc2c1` [Ex. 6, 4-Methyl-2-oxo-2H-1-benzopyran-7-yl 2,3,4-tri-O-(2-methoxyethoxycarbonyl)-5-thio-β-D-xylopyranoside], in the data set on venous thrombosis, the inhibition in vivo at 5 mg/kg worked out at 52%. On the same count and under the same terms, the same measure for `Cc1cc(=O)oc2cc(O[C@@H]3SC[C@@H](OC(=O)OCC(C)C)[C@H](OC(=O)OCC(C)C)[C@H]3OC(=O)OCC(C)C)ccc12` [Ex. 5, 4-Methyl-2-oxo-2H-1-benzopyran-7-yl 2,3,4-tri-O-(2-methylpropoxycarbonyl)-5-thio-β-D-xylopyranoside]: 65%. Take `Cc1cc(=O)oc2cc(O[C@@H]3SC[C@@H](O)[C@H](O)[C@H]3O)ccc12` [D, 4-methyl-2-oxo-2H-1-benzopyran-7-yl 5-thio-β-D-xylopyranoside, reference compound]: in the data set on venous thrombosis (p.o. in PEG 400, 6 mg/kg), the “Activity p.o. T = 4 h (percentage inhibition of thrombus weight)” value is listed as 84% and the “Activity p.o. T = 8 h (percentage inhibition of thrombus weight)” value is listed as 15%. Besides, in data set [1], the “solubility in injectable solvents” value is given as “insoluble”. Also, the “reduction of the formation of a venous thrombus” value in the data set on venous thrombus is recorded as “more than 80%”. Regarding `Cc1cc(=O)oc2cc(O[C@@H]3SC[C@@H](OC(=O)OCCO)[C@H](OC(=O)OCCO)[C@H]3OC(=O)OCCO)ccc12` [Ex. 9, 4-Methyl-2-oxo-2H-1-benzopyran-7-yl 2,3,4-tri-O-(2-hydroxyethoxycarbonyl)-5-thio-β-D-xylopyranoside], the inhibition in vivo at 5 mg/kg with venous thrombosis was 27%. In the data set on venous thrombosis (p.o. in PEG 400, 11 mg/kg), the “Activity p.o. T = 4 h (percentage inhibition of thrombus weight)” value was 93% and the “Activity p.o. T = 8 h (percentage inhibition of thrombus weight)” value is reported as 29%.

Turning to `COC(=O)O[C@@H]1[C@@H](OC(=O)OC)[C@H](OC(=O)OC)CS[C@H]1Oc1ccc2c(C)cc(=O)oc2c1` [Ex. 1, 4-Methyl-2-oxo-2H-1-benzopyran-7-yl 2,3,4-tri-O-methoxycarbonyl-5-thio-β-D-xylopyranoside], the inhibition in vivo at 5 mg/kg with venous thrombosis was 84%. Besides, in the data set on venous thrombosis (p.o. in PEG 400, 9 mg/kg), the “Activity p.o. T = 4 h (percentage inhibition of thrombus weight)” value was 87% and the “Activity p.o. T = 8 h (percentage inhibition of thrombus weight)” value is reported as 66%.

For the compound `C=COC(=O)O[C@@H]1[C@@H](OC(=O)OC=C)[C@H](OC(=O)OC=C)CS[C@H]1Oc1ccc2c(C)cc(=O)oc2c1` [Ex. 8, 4-Methyl-2-oxo-2H-1-benzopyran-7-yl 2,3,4-tri-O-(ethenyloxycarbonyl)-5-thio-β-D-xylopyranoside], the inhibition in vivo at 5 mg/kg in the data set on venous thrombosis amounted to 65%.
